# According to US20030114492A1, “Method of using neurotrophic sulfonamide compounds” (priority 1997, published 2003):
# How the values were obtained:
# [1] = tested on: chick dorsal root ganglia; experiment: Chick dorsal root ganglion cultures and neurite outgrowth; format: cell-based; details: Gallus gallus, 48 h; read-out: ED50 (the source's name)
# Description: Dorsal root ganglia were dissected from chick embryos of ten day gestation. Whole ganglion explants were cultured on thin layer Matrigel-coated 12 well plates with Liebovitz L15 plus high glucose media supplemented with 2 mM glutamine and 10% fetal calf serum, and also containing 10 μM cytosine β-D arabinofuranoside (Ara C) at 37° C. in an environment containing 5% CO2. Twenty-four hours later, the DRGs were treated with various immunophilin ligands. Forty-eight hours after drug treatment, the ganglia were visualized under phase contrast or Hoffman Modulation contrast with a Zeiss Axiovert inverted microscope. Photomicrographs of the explants were made, and neurite outgrowth was quantitated. Neurites longer than the DRG diameter were counted as positive, with total number of neurites quantitated per each experimental condition. Three to four DRGs are cultured per well, and each treatment was performed in duplicate.
# The data for these experiments for representative compounds are presented in the “ED50” column of Table I.
# [2] = tested on: TH-positive dopaminergic neurons in the striatum; experiment: MPTP model of Parkinson's Disease, TH immunostaining of striatum; format: in vivo; details: MPTP-lesioned CD1 mice (30 mg/kg i.p. for 5 days), compound 4 mg/kg s.c. for 10 days, striatum at 18 days
# Description: MPTP lesioning of dopaminergic neurons in mice was used as an animal model of Parkinson's Disease. Four week old male CD1 white mice were dosed i.p. with 30 mg/kg of MPTP for 5 days. Test compounds (4 mg/kg), or vehicle, were administered s.c. along with the MPTP for 5 days, as well as for an additional 5 days following cessation of MPTP treatment. At 18 days following MPTP treatment, the animals were sacrificed and the striata were dissected and perfusion-fixed. Immunostaining was performed on saggital and coronal brain sections using anti-tyrosine hydroxylase […] to quantitate survival and recovery of dopaminergic neurons. In animals treated with MPTP and vehicle, a substantial loss of functional dopaminergic terminals was observed as compared to non-lesioned animals.
# FKBP12 = FKBP12 (Homo sapiens, UniProt P62942); experiment: Ki test procedure: inhibition of peptidyl-prolyl isomerase (rotamase) activity, chymotrypsin-coupled assay; format: biochemical; details: apparent Ki, rotamase activity of FKBP, substrate N-succinyl-Ala-Ala-Pro-Phe-p-nitroanilide
# From the text: The inhibition of the prolyl peptidyl cis-trans isomerase activity of FKBP may be measured as an indicator of this affinity.
# Inhibition of the peptidyl-prolyl isomerase (rotamase) activity of the inventive compounds can be evaluated by known methods described in the literature (Harding, et al., Nature, 1989, 341:758-760; Holt et al. J. Am. Chem. Soc., 115:9923-9938). These values are obtained as apparent Ki's and are presented in Table I. The cis-trans isomerization of an alanine-proline bond in a model substrate, N-succinyl-Ala-Ala-Pro-Phe-p-nitroanilide, is monitored spectrophotometrically in a chymotrypsin-coupled assay, which releases para-nitroanilide from the trans form of the substrate. The inhibition of this reaction caused by the addition of different concentrations of inhibitor is determined, and the data is analyzed as a change in first-order rate constant as a function of inhibitor concentration to yield the apparent Ki values.
# In a plastic cuvette are added […] of ice cold assay buffer (25 mM HEPES, pH 7.8, 100 mM NaCl), […] of FKBP (2.5 mM in 10 mM Tris-Cl pH 7.5, 100 mM NaCl, 1 mM dithiothreitol), […] of chymotrypsin (50 mg/ml in 1 mM HCl) and […] of test compound at various concentrations in dimethyl sulfoxide. The reaction is initiated by the addition of 5 mL of substrate (succinyl-Ala-Phe-Pro-Phe-para-nitroanilide, 5 mg/mL in 2.35 mM LiCl in trifluoroethanol).
# The absorbance at 390 nm versus time is monitored for 90 seconds using a spectrophotometer and the rate constants are determined from the absorbance versus time data files.
# Sequence of FKBP12 (P62942 whole entry, species assumed): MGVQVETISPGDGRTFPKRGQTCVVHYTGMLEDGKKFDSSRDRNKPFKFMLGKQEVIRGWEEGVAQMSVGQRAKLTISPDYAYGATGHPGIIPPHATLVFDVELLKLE
Ki (FKBP12),Structure (SMILES),EC50 [1],"% Rescue, TH Immunostaining at 4 mg/kg, s.c. [2]"
34 nM,"O=C(OCCCCc1ccccc1)C1CCCCN1S(=O)(=O)Cc1ccccc1 (stereo not drawn) [Compound 2, 4-Phenyl-1-butyl 1-(α-tolylsulfonyl)-2-pipecolinate]",0.031 nM,38.00%
72 nM,"O=C(OCCCc1cccnc1)[C@@H]1CCCN1S(=O)(=O)Cc1ccccc1 [Compound 1, 3-(3-Pyridyl)-1-propyl(2S)-N-(α-toluenesulfonyl)pyrrolidine-2-carboxylate]",0.002 nM,44.31%
107 nM,"O=C(OC(CCc1ccccc1)CCc1ccccc1)C1CCCCN1S(=O)(=O)Cc1ccccc1 (stereo not drawn) [Compound 3, 1,5-Diphenyl-3-pentyl N-(α-toluenesulfonyl)-pipecolate]",0.133 nM,–
–,O=C(OCCCCc1ccccc1)C1CCCCN1S(=O)(=O)c1ccccc1 (stereo not drawn) [4-phenyl-1-butyl-N-(benzenesulfonyl) pipecolate],–,29.22%
